Source: publication PMC10568017, “A quest for the stereo-electronic requirements for selective agonism for the neurotrophin receptors TrkA and TrkB in 17-spirocyclic-dehydroepiandrosterone derivatives” (Frontiers in Molecular Neuroscience, 2023)

Key:
[1] = tested on: NIH-3T3 TrkB-expressing cell line; experiment: CellTox Green cytotoxicity assay in NIH-3T3 cells stable transfected with TrkB under serum deprivation; assay type: cell-based; details: compound 1 μM, 24 h, after 24 h serum starvation; BDNF 500 ng/mL as control
Protocol: (§1) We tested compounds on three cellular systems, primary cortical astrocytes from 2-day-old mice (as a natively TrkB-expressing neuronal population), and NIH-3T3 fibroblasts stable transfected with TrkB and NIH-3T3 naïve cells. Cells were grown with high-glucose DMEM medium supplemented with 10% fetal bovine serum (FBS), 100 μg/mL streptomycin, and 100 units/mL penicillin at 37°C in a humidified 5% CO2 atmosphere. Phosphorylation results presented here are in primary astrocytes, and cell toxicity assay results are in NIH-3T3 stable transfected cells with TrkB.
NIH-3T3 stable transfected cells with TrkB were plated in 96-well plates at a density of 10,000 cells/well, before carrying out serum starvation for 24 h. Cells were then treated for 24 h with either BDNF at 500 ng/mL (control) or the compounds at 1 μM.
(§2) For the cell toxicity assay, we used CellTox™ Green Dye (2,000 × , Promega) for the visualization of dead cells and Hoechst 33,342 solution (10,000 × ) for total cells. A ZEISS Axio Vert.A1 microscope was used for image capture, and the ImageJ software (https://imagej.nih.gov/ij/) was used for analysis. The number of CellTox positive cells was normalized against the total number of cells observed in each image.
The NIH-3T3 TrkB cell line, which is stable and transfected to specifically express the TrkB receptor, was used for the screening of the new compounds for their ability to protect cells from serum deprivation-induced apoptosis through the activation of the TrkB receptor. Cell death was induced by serum deprivation for 24 h and then BDNF (500 ng/mL), the native neurotrophin ligand of the TrkB receptor, or compounds ENT-A007, ENT-A009, ENTA025, ENT-A026, ENT-A033, ENT-A034, ENT-A035, ENT-A036, ENT-A037, ENT-A046, ENT-A047, ENT-A055, and ENT-A056 (1 μM) were added to the media for 24 h.

PC12 cells = experiment: CellTox assay, survival of PC12 cells under serum deprivation; assay type: cell-based; details: compound 500 nM, 24 h, after 4 h serum starvation; NGF 100 ng/mL as control (Figure 9)
Protocol: PC12 cells were obtained from LGC Promochem and cultured under specified conditions. Cells were grown in DMEM medium (Thermo Fischer Scientific, cat# 10566016) containing 10% horse serum (Thermo Fischer Scientific, cat# 16050122), 5% fetal bovine serum (Thermo Fischer Scientific, cat# 10270106), 100 units/mL penicillin, and 0.1 mg/mL streptomycin (Thermo Fischer Scientific, cat# 15140122) at 5% CO2 and 37°C. Cells were used between passages 5 and 20.
CellTox assay (G8742, Promega, Leiden, Belgium) was used to assess the survival of PC12 cells under serum deprivation conditions. PC12 cells were plated in 96-well plates, starved from serum for 4 h, and subsequently treated with NGF (100 ng/mL) or compound (500 nM) for 24 h. CellTox assay reagents and Hoescht (1:10,000, H3570, Invitrogen, Massachusetts, USA) were then added to each well for 30 min, and then, cells were imaged with a Zeiss AXIO Vert A1 fluorescent microscope. CellTox positive cells were normalized to the total number of cells for each image.
Initially, we tested compounds ENT-A002, ENT-A007, ENT-A009, ENTA025, ENT-A026, ENT-A033, ENT-A034, ENT-A035, ENT-A036, ENT-A037, ENT-A046, ENT-A047, ENT-A055, and ENT-A056 for their ability to protect PC12 cells from serum deprivation-induced cell death as well as for their ability to activate TrkA downstream pro-survival signaling kinases Akt and Erk1/2 (Figures 9A–C). We opted to employ PC12 cells, which express receptors TrkA and p75 and have been routinely used for investigating NGF-TrkA signaling. PC12 cells were subjected to a period of nutrient deprivation (without fetal bovine serum and horse serum in their culture medium) for 4 h. Following this, NGF (100 ng/mL) or one of the compounds (500 nM or 1 μM) was administered and allowed to interact with the cells for 24 h. Following that, CellTox and Hoescht dyes were added and cells were imaged to assess cell death. Control cases involved cells cultured in full medium (serum), cells under starvation conditions (serum-free), and cells under starvation conditions treated with DMSO (SF+DMSO).

TrkB = target: T1, TrkB (Mus musculus, UniProt P15209); experiment: TrkB phosphorylation assay in primary astrocytes (Western blot); assay type: cell-based; details: compound 1 μM, 20 min, after 6 h serum starvation, BDNF 500 ng/mL as control
T1 construct: primary cortical astrocytes from 2-day-old mice (as a natively TrkB-expressing neuronal population); endogenous in cells; host or cells: primary cortical astrocytes from C57B/6 mouse pups (P2)
T1 sequence (P15209 32-821): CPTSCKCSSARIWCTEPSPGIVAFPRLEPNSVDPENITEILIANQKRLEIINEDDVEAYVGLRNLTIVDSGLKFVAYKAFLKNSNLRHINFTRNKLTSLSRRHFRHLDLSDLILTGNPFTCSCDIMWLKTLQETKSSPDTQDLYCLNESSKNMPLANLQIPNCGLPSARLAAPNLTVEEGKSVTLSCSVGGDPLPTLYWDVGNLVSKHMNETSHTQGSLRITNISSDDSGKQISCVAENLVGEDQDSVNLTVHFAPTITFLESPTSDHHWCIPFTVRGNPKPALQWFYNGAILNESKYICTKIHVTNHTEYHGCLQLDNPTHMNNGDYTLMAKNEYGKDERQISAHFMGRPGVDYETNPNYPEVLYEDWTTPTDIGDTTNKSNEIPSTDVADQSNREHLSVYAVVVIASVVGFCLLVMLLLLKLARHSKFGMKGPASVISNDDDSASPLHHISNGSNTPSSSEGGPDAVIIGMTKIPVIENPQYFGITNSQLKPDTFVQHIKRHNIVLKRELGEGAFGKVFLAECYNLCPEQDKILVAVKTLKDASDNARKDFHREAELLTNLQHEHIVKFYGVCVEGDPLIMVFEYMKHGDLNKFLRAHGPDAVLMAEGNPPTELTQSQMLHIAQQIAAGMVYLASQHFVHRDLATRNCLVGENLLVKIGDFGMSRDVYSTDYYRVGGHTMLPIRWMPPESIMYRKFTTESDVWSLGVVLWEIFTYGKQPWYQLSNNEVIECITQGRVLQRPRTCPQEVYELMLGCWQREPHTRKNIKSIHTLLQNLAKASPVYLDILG
Protocol: as §1
Cells were plated in 12 well plates, at a density of 100,000 cells per well, with 6 h of serum deprivation carried out on the following day. To assess the effect of compounds on TrkB phosphorylation, 20-min treatments were applied, using either BDNF at 500 ng/mL (Peprotech 450-02) (positive control) or compounds at 1 μM.
Cell lysis for 10 min was carried out on ice using the Pierce IP Lysis Buffer by Thermo Scientific and a phospho-protease inhibitor cocktail by Millipore. After adding loading buffer (5 × Laemni), 25 μg from each protein sample were incubated for 5 min at 95°C and subjected to SDS-PAGE. Proteins were transferred to a nitrocellulose membrane at 350 mA for 2 h. Membrane blocking was performed using 5% bovine serum albumin (BSA) at room temperature for 1 h, before adding the primary antibodies to the blocking solution at 4°C overnight. HRP-conjugated secondary antibodies were used for the detection of chemiluminescence with ECL solution. Primary antibodies: Phospho-TrkB (Tyr816) Millipore # ABN1381, and Anti-TrkB Abcam #ab33655.
Mixed glial cultures were isolated from the cortex of C57B/6 pups at post-natal day 2 (P2). Cells were plated in a medium containing high-glucose DMEM, 200 U/mL penicillin, 200 μg/mL streptomycin, and 10% fetal bovine serum (FBS). When cells reach 100% confluency (7–8 days), the anti-mitotic agent Ara-C was added in the media at a final concentration of 10 μM, for 3 to 4 days to target the highly proliferative microglial cells. Ara-C was removed, and primary astrocytes (97% purity) were cultured at 5% CO2 and 37°C.
Cells were plated at 70–80% confluency. The next day, they were deprived of serum for 6 h and subsequently treated with 500 ng/mL BDNF or 1 μM of compounds for 20 min. Cells were then lysed in Pierce™ IP Lysis Buffer (87788, Thermo Fischer Scientific, Rockford, USA), containing proteases (539138, Calbiochem, Darmstadt, Germany), and phosphatase inhibitors (524629, Calbiochem, Darmstadt, Germany). Lysates were then suspended in an SDS loading buffer and subjected to Western blot against phosphorylated TrkB (1:1,000, ABN1381, Sigma-Aldrich, St. Louis, MO, USA) and total TrkB (1:1,000, 07-225-I, Sigma-Aldrich, St. Louis, MO, USA).

[2] = Metabolic stability in pooled human liver microsomes; assay type: in vitro ADME; details: 1 μM; for residual of time zero: pooled human liver microsomes 0.5 mg/mL, t = 60 min, NADPH; for parent structure loss (depletion) class: pooled human liver microsomes, 60 min
Protocol: For metabolic stability assessment, pooled human liver microsomes were employed at 0.5 mg/mL. Incubation conditions were optimized to ensure linear metabolite formation with respect to protein concentration and reaction time. All test compounds were assessed at 1 μM based on our ADMET standard operating procedures and protocols, also published previously (1 μM was selected based on our ADMET standard operating procedures and protocols also published previously) (Rogdakis et al., [2022]; Yilmaz et al., [2022]). Approximately 1 mM of NADPH served as a cofactor. Reactions took place in triplicates at 37°C. Negative and positive controls (low vs. rapid clearance) were included for low vs. rapid clearance. After 60 min, reactions were terminated.
Parent structure loss is classified as very slow (<5%), slow (5–19%), moderate (20–50%), fast (50–80%), or very fast (>80%). Such categories have been defined according to set criteria, namely, high metabolism (t1/2 value of <30 min), moderate metabolism (30 min <t1/2 value of <60 min), and low metabolism (t1/2 value of >60 min) (EMA, [2012], [2013]; FDA, [2020]).

NIH3T3 naive cells = experiment: CellTox assay in NIH3T3 naive cells under serum deprivation; assay type: cell-based; details: compound 1 μM or BDNF 500 ng/mL, 24 h, after 18 h nutrient deprivation
Protocol: as §1, §2
These cells were treated with the compounds, or BDNF, for 24 h under starvation conditions. Control conditions included cells cultured with serum, serum-free conditions, and serum-free conditions supplemented with DMSO. The cells were subjected to a period of 18 h of nutrient deprivation before the treatments. […] Therefore, we infer that the involvement of the TrkB receptor is indeed essential for the cell-protective effects of ENT-A076, ENT-A087, and ENT-A088 (Figures 14A, B).

Row | melting point | Molecule | protection of NIH-3T3-TrkB cells from serum deprivation-induced cell death (CellTox) [1] | rescue of NIH3T3 naive cells (no neurotrophin receptors) from serum deprivation-induced cell death (CellTox) (NIH3T3 naive cells) | also measured
1 |  | COc1ccc(COCC2=CC[C@@]3(CC[C@H]4[C@@H]5CC=C6C[C@@H](O)CC[C@]6(C)[C@H]5CC[C@@]43C)OC2)cc1 [ENT-A035] | none of these compounds provided any protective effects |  | protection of PC12 cells from serum deprivation-induced cell death (CellTox) (PC12 cells): none of these compounds provided any protective effects
2 | 202 to 204 °C | C[C@]12CC[C@H](O)CC1=CC[C@@H]1[C@@H]2CC[C@@]2(C)[C@H]1CC[C@@]21CC=C(Cn2cc(CO)nn2)CO1 [ENT-A037, (3S,17R)-5′-[(4-(hydroxymethyl)-1H-1,2,3-triazol-1-yl)methyl]-3′,6′-dihydrospiro[5-androstene-17,2′-pyran]-3-ol] |  |  | 
3 |  | CN(C)Cc1cn(CC2=CC[C@@]3(CC[C@H]4[C@@H]5CC=C6C[C@@H](O)CC[C@]6(C)[C@H]5CC[C@@]43C)OC2)nn1 [ENT-A046, (3S,17R)-5′-[(4-((dimethylamino)methyl)-1H-1,2,3-triazol-1-yl)methyl]-3′,6′-dihydrospiro[5-androstene-17,2′-pyran]-3-ol] | significantly reduce cell death levels compared to the serum-free control, comparable to the BDNF action |  | protection of PC12 cells from serum deprivation-induced cell death (CellTox) (PC12 cells): without showing any antiapoptotic activity in PC12 cells; phosphorylation levels of the TrkB receptor (TrkB): only ENT-A009 and ENT-A055 successfully increased phosphorylation levels of the TrkB receptor
4 | 181 °C (dec.) | C[C@]12CC[C@H](O)CC1=CC[C@@H]1[C@@H]2CC[C@@]2(C)[C@H]1CC[C@@]21CC=C(Cn2cc(CC3CCCCC3)nn2)CO1 [ENT-A047, (3S,17R)-5′-[(4-(cyclohexylmethyl)-1H-1,2,3-triazol-1-yl)methyl]-3′,6′-dihydrospiro[5-androstene-17,2′-pyran]-3-ol] |  |  | 
5 |  | C[C@]12CC[C@H](O)CC1=CC[C@@H]1[C@@H]2CC[C@@]2(C)[C@H]1CCC21CC(=O)C1 [ENT-A076, (3S)-3-hydroxy-spiro[5-androsten-17-cyclobutan]-3′-one] | demonstrated the ability to promote cell survival during serum starvation as well as BDNF | neither the compounds nor BDNF were able to rescue the cells from cell death | residual of time zero [2]: 95%; parent structure loss (depletion) class [2]: slow (slow (5–19%))
6 | 161 to 163 °C | C[C@]12CC[C@H](O)CC1=CC[C@@H]1[C@@H]2CC[C@@]2(C)[C@H]1CCC21CC(=CC#N)C1 (stereo partly drawn) [ENT-A077] |  |  | 
7 | 221 °C (dec.) | C[C@]12CC[C@H](O)CC1=CC[C@@H]1[C@@H]2CC[C@@]2(C)[C@H]1CCC21CC(=CC(=O)O)C1 (stereo partly drawn) [ENT-A080] |  |  | 
8 |  | COC(=O)C=C1CC2(CC[C@H]3[C@@H]4CC=C5C[C@@H](O)CC[C@]5(C)[C@H]4CC[C@@]32C)C1 (stereo partly drawn) [ENT-A087] | demonstrated the ability to promote cell survival during serum starvation as well as BDNF | neither the compounds nor BDNF were able to rescue the cells from cell death | residual of time zero [2]: > 95%; parent structure loss (depletion) class [2]: very slow (very slow (<5%))
9 |  | brain-derived neurotrophic factor (protein, UniProt P23560 19-247, looked up, native neurotrophin ligand of the TrkB receptor, positive control at 500 ng/mL) Neurotrophic factor BDNF …: APMKEANIRGQGGLAYPGVRTHGTLESVNGPKAGSRGLTSLADTFEHVIEELLDEDQKVRPNEENNKDADLYTSRVMLSSQVPLEPPLLFLLEEYKNYLDAANMSMRVRRHSDPARRGELSVCDSISEWVTAADKKTAVDMSGGTVTVLEKVPVSKGQLKQYFYETKCNPMGYTKEGCRGIDKRHWNSQCRTTQSYVRALTMDSKKRIGWRFIRIDTSCVCTLTIKRGR |  | neither the compounds nor BDNF were able to rescue the cells from cell death | 
